Measured values as given in US12128129B2, “Lactobacillus plantarum for skin care” (SYMRISE AG, priority 2019, dated 2024).

What was measured:
Type in all cases: cell-based, human
[1] = system: HaCaT keratinocytes; test: IL-8 release after IL-1alpha stimulation of pre-treated keratinocytes (ELISA); conditions: 48 h pre-treatment, then 30 ng/mL IL-1alpha for 8 h
Protocol: Anti-Inflammatory Effects of Lactobacillus plantarum HEAL 19 and HEAL 99 HaCaT keratinocytes were cultivated in 96-well plates using RPMI-A, medium sterile filtered with L-Glutamine, Capricorn, supplemented with 10% fetal calf serum (FCS), Capricorn. The plates were incubated at 37° C. and 5% CO2. After 24 hours starvation with cell culture medium (RPMI, 1% FCS) the cells were washed once. The anti-inflammatory substances/inactivated bacteria suspensions were suspended in starvation medium, applied and incubated for 24/48 h with parameters described above. […] To remove bacterial cells after pre-incubation all wells were washed with cell culture medium three times. IL-1alpha, Gibco, life technologies was dissolved in H2Odest, diluted in starvation medium and pipetted to wells, preferably at a concentration of 30 ng/mL. Alternatively, a heat inactivated Staphylococcus aureus (DSM799) suspension was used as pro-inflammatory agent in a concentration of 0.1 mg/mL-1 mg/mL dry mass. After 8 h incubation the supernatants were separated. All samples were stored at −80° C. until further analyses. IL-8 concentrations were measured with Human CXCL8/IL-8, DuoSet ELISA, Development Systems, R&D Systems. The experimental procedure was performed as described in the provided protocol. After calculating means of the duplicate/triplicate values and subtraction of the average zero standard optical density the calculation was done using four parameter logistic curve-fit for creating standard curves.

[2] = system: HEPKp 3 dimensional skin models; test: Filaggrin release from HEPKp 3D skin models (ELISA); conditions: 0.05%, after 8 days, vs medium control
Excerpt: Induction of Moisturizing Factor Filaggrin in 3D Skin Models Three dimensional skin models derived from human epidermal keratinocyte progenitors (HEPKp) and were systemically treated with test substances in CnT-PR-3D medium for 4 to 9 days. The filaggrin release was detected in the media by ELISA, Enzyme-linked Immunosorbent Assay Kit for filaggrin, Cloud-Clone Corp.

[3] = system: HaCaT keratinocytes; test: AMP gene expression in keratinocytes grown as mono-layer (real time PCR, TaqMan array); conditions: 0.1 and 0.05% tested, 24 h treatment, HaCaT
Protocol: Effects of Lactobacillus Strains on AMP Gene Expression in Keratinocytes Grown as Mono-Layer
AMP inductions were measured with real time PCR analysis using Taq-Man® Array fast 96-well plates.
HaCaT keratinocytes were cultivated in EpiLife medium, cascade Biologics, Gibco, incl. HKGS, Gibco, life technologies. Test substances were diluted in equal medium and added in a volume of 2 mL per well on 6-well plates. All samples are tested on 100% confluent cells incubated at 37° C., 5% CO2. After 24 h incubation time all samples were removed and cells washed twice with Dulbecco's Phosphate Buffered Saline with Ca and Mg, Capricorn. RNA isolation was performed using RNeasy® Mini Kit, Qiagen. The procedure has been done as describes in the RNeasy Mini Handbook.
Cells were lysed and precipitated with ethanol, the homogenate was washed three times using the spin column and the mRNA was eluated with purified water. Depending on the sample the procedure was slightly adjusted.
RNA concentration was measured using μCuvetteG 1.0 and BioPhotometer, Eppendorf by measuring the absorption at 260 nm. Control values, like E260/280 or E260/230 were calculated simultaneously. Transcription was done with a minimum of 0.5-1 μg RNA per sample.
Reverse transcription was done using high capacity RNA-to-cDNA Kit, Applied Biosystems. The procedure was based on the provided protocol. All samples were incubated in a PCR Thermocycler, Biometra running 60 min at 37° C. for reverse transcription, followed by 5 min at 95° C. (enzyme inactivation) and holding temperature at 4° C. in reaction room.
Quantitative Real-Time PCR was done using StepOne Plus Fast Real Time PCR Instrument, Applied Biosystems. Initial steps of the RT-PCR included a first heating phase holding for 20 s at 95° C., followed by 40 cycles of cDNA denaturation for 3 s at 95° C. and annealing/elongation at 60° C. for 30 s.
Analysis was done by 2-ACT Method—in detail: • 1. Standardization of Ct values with reference-gen (HPRT) ΔCTvaluegene=CTvaluegene−CTvalueReferencegene (HPRT) • 2. Subtraction of ACT-value of control sample (untreated) and ACT-value (treated) ΔΔCTvaluegene=ΔCTvaluetreated−ΔCTvaluecontrol • 3. Calculation of RQ-Ratio (relative quantification-value) RQ−value=2^−ΔΔCT
A RQ-Value of >2 was defined as relevant induction of a gene.

[4] = system: HEPKp 3 dimensional skin models; test: Induction of hyaluronic acid in HEPKp 3D skin models (ELISA); conditions: 0.005% in cell culture medium, 8 days treatment
Protocol: Induction of Hyaluronic Acid Human epidermal keratinocyte progenitors (HEPKp) generated 3d human skin models were cultivated and systemically treated with test substances. Briefly, defined concentrations of test substances were added to cell culture medium and each skin model was treated in cell culture dishes for up to 9 days at 37° C. and 5% CO2. After the treatment, collected supernatants were stored at −80° C. until further analyses. Viability of the cells was controlled by MTT standard method. Hyaluronic acid concentrations were measured by TECOmedical hyaluronic acid plus ELISA. The experimental procedure was performed as described in the provided protocol.

Row | Molecule | IL-8 release reduced to, compared to not pre-treated IL-1alpha control ([1]; 30 μM, positive control) [%] | filaggrin (FLG) release in medium [2] [%] | induction of AMP coding gene Peptidase inhibitor 3 [3] | induction of AMP coding gene Phospholipase A2 [3] | induction of AMP coding gene RNase 7 [3] | induction of AMP coding gene Secretory leukocyte peptidase inhibitor [3] | induction of AMP coding gene β-Defensin 3 [3] | IL-8 release reduced to, compared to not pre-treated IL-1alpha control ([1]; 0.1 mg/mL) [%] | hyaluronic acid release compared to the medium control [4] [%]
1 | C[C@@H]1C[C@H]2[C@@H]3CCC4=CC(=O)C=C[C@]4(C)[C@@]3(F)[C@@H](O)C[C@]2(C)[C@@]1(O)C(=O)CO [dexamethasone, reference compound] | 20.4 | – | – | – | – | – | – | – | –
2 | Lactobacillus plantarum HEAL 99 (DSM 15316) [L. plantarum HEAL 99] | – | 150 | induced concentration dependently | induced concentration dependently | induced concentration dependently | induced concentration dependently | induced concentration dependently | 12.6 | 115
